Data on 3 compounds can be found in patent US20060148908A1, “Supressant of toxicity induced by cancer chemotherapeutic agent and composition of cancer chemotherapeutic agent containing the same” (priority 2003, published 2006).

Data set [1] deals with ICR mice. The data set can be described thus: Serum biochemical parameters (GPT, GOT, BUN, creatinine) in cisplatin-treated mice. The format is in vivo. The protocol:
(§1) The kidney and spleen were separated and weighed, respectively.
Blood samples obtained from heart were kept at room temperature for 2 h, centrifuged at 3000 rpm for 10 minutes to obtain sera, and stored at low temperature for analyzing proteins. GPT (Glutamate-Pyruvate Transaminase), GOT (Glutamate-Oxaloacetate Transaminase), blood urea nitrogen (BUN), and creatinine from the serum were measured.
The principle is following: α-ketoglutaric acid+alanine→glutamate+pyruvate. Pyruvate formed by GPT enzyme in said reaction is reacted with 2,4-dinitrophenylhydrazine and the intensity of color formed by the resulting reaction is related to enzymatic activity. The absorbance was determined at 505 nm. The reagents for determining GPT and GOT were purchased from Sigma chemical Co. (St. Louis, U.S.A.). Because hemolyzed serum contains a high level of GOT and GPT compared to normal serum, only unhemolyzed serum should be used as much as possible. The separated serum samples were stored at 4° C. and used within 5 days because the activity of GPT and GOT might decrease after 5 days at low temperature.
1 ml alanine-α-KG substrate was added to test tube and was pre-warmed at 37° C. for 2-3 minutes. 0.2 ml serum samples was added to each tube and incubated at 37° C. for 30 minutes in water bath. After that, 1 ml 2,4-dinitrophenylhydrazine was added and incubated at room temperature for 20 minutes. 10 ml 0.4N NaOH solution was added to each tube and was mixed well. After that, the GPT absorbance of each tube was read comparing with distilled water. In case of GOT determination, 1 ml aspartate-α-KG substrate was pre-warmed at 37° C. for 2-3 minutes, and 0.2 ml serum samples were added to each tube and incubated at 37° C. for 60 minutes, and the absorbance was read.
Through a kit for assaying blood urea nitrogen, Ammonia (NH3) formed by hydrolysis of urea was measured by the absorbance at 570 nm.
0.5 ml urease solution was added to test tube and mixed with 10 μl serum sample, and incubated in water bath at 37° C. for 5-10 minutes. 1 ml phenol nitroprusside solution and 1 ml alkaline hypochlorite solution were added to the tube and mixed gentlely, and 5 ml distilled water was added. After that, the absorbance of the reaction was measured comparing with distilled water as a control. The reagents for determining urea nitrogen were purchased from Sigma chemical Co. (St. Louis, U.S.A.) and standard calibration curve was used.
Standard calibration curve was used.
3 ml alkaline picrate solution and 0.3 ml serum sample were mixed well at 37° C. for 20 minutes and the absorbance (A1) was measured. Distilled water was used for a negative control. 0.1 ml acid solution (mixture of sulfuric acid and acetic acid) was added to each tube and incubated in water bath at 37° C. for 5 minutes. After that, the absorbance (A2) was read with distilled water as a negative control. Absorbance of the sample for determining the content of creatinine is absorbance (A1) minus absorbance (A2) according to standard calibration curve. The reagents for determining creatinine were purchased from Sigma chemical Co. (St. Louis, U.S.A.)

The subject of the next data set is COX-2. Put plainly: Semiquantitative RT-PCR of liver, COX-2 mRNA expression. In kind it is in vivo, mice. As to conditions: for cisplatin-induced COX-2 mRNA expression: pretreatment 200 mg/kg before cisplatin. As for the experimental part:
(§2) The mRNA expression levels of NF-κB-dependent genes, COX-2 and iNOS, were evaluated by semiquantitative RT-PCR using specific primer sets. β-actin and GAPDH were used as control.
as §1

The test system of the next data set is NF-κB. As to conditions: for binding activity of NF-κB induced by cisplatin: liver, oral pretreatment before cisplatin. The protocol: (§3) The density of band was measured by RFLPscan software.
as §1
(§4) EMSA (electrophoretic mobility shift assay) was performed to evaluate the xanthorrhizol's effects on NF-κB and AP-1. […] After that, powdered liver tissues were homogenized in 500 μl of cool hypotonic buffer [10 mM HEPES (pH 7.8), 10 mM KCl, 1.5 mM MgCl2, 0.5 mM DIT, 0.2 mM PMSF]. To the homogenates was added 125 μl of 10% NP-40 solution, and the mixture was then centrifuged at 12,000×g for 1 min. Pellets were washed once with 100 μl of the above buffer and 12.5 μl of 10% NP-40, centrifuged, resuspended in 50 μl of 20 mM cool HEPES buffer (pH 7.8) containing 420 mM NaCl, 1.5 mM MgCl2, 0.2 mM EDTA, 0.5 mM DTT, 0.2 mM PMSF, and 20% glycerol, and centrifuged at 12000×g for 5 min at 4° C. The supernatant containing nuclear proteins was collected and assayed protein concentration and stored at −70° C. […] The binding reaction was carried out in 25 μl of the mixture containing 5 μl of incubation buffer [10 mM Tris-HCl (pH 7.5), 100 mM NaCl, 1 mM DTT, 1 mM EDTA, 4% (v/v) glycerol, and 0.1 mg/ml sonicated salmon sperm DNA], 10 μg of nuclear extracts, and 100,000 cpm of the labeled probe. After 50 min of incubation at room temperature, the samples and comparative samples mixed with 3 μl of loading buffer (250 mM Tris-HCl (pH7.5), 0.2% bromophenol blue, 40% glycerol) were electrophoresed through a 6% non-denaturing polyacrylamide gel at 150 V for 2 hrs. Finally, the gel was dried and exposed to X-ray film.

In a further data set the test system is AP-1. As for the experimental part:
as §3, §1, §4

Data set [2] has as its system ICR mice. The data set can be described thus: Kidney and spleen weight relative to body weight in cisplatin-treated mice. The format is in vivo. The settings on record: for specific gravity of kidney: oral pretreatment for 4 days before cisplatin injection, versus cisplatin only. As for the experimental part:
Cisplatin was intraperitoneally injected in mice. After some time passed, body weights of the mice were checked and induction of toxicity was confirmed. Blood was gotten from the heart of etherized mouse, and biochemical markers related to the induction of hepatotoxicity and nephrotoxicity were evaluated, and the kidney and spleen were separated and weighed for comparison.
Changes of specific gravity of kidney were also measured to evaluate suppressing effects of xanthorrhizol on nephrotoxicity induced by cisplatin.
as §1

In another data set the test system is iNOS. The data set can be described thus: Semiquantitative RT-PCR of liver, iNOS mRNA expression. As to conditions: for induction of iNOS mRNA expression by cisplatin: pretreatment before cisplatin. In kind it is in vivo, mice. The protocol:
as §2, §1

A further data set concerns Kin. The settings on record: mouse, in vivo.
Another data set relates to S100A9. Put plainly: DDRT-PCR and semiquantitative RT-PCR of liver, S100A9 mRNA expression. In kind it is in vivo, mice.
The test system of a further data set is ClpX. The data set can be described thus: DDRT-PCR and semiquantitative RT-PCR of liver, ClpX mRNA expression. The format is in vivo, mice.
The subject of the next data set is Streptococcus mutans. The settings on record: Hwang 2000; cited from earlier work.
The subject of another data set is rat uterine. As to conditions: Ponce-Monter et al. 1999; cited from earlier work.
[3] abbreviates: 200 mg/kg per day orally 4 days, then cisplatin 45 mg/kg i.p., 16 h.
[4] abbreviates: liver, oral pretreatment before cisplatin.
Where [5] appears, read: cisplatin 45 mg/kg i.p. alone, 16 h after injection.
Where [6] appears, read: administration of cisplatin alone.
Where [7] appears, read: cisplatin 45 mg/kg i.p. alone (corn oil orally 4 days), 16 h after injection.
Where [8] appears, read: 100 mg/kg per day orally 4 days, then cisplatin 45 mg/kg i.p., 16 h.
Where [9] appears, read: 200 mg/kg per day orally 4 days, then cisplatin 45 mg/kg i.p., 16 h, listed as xanthorrhizol.

Entries after “also recorded” stand apart in the source; their conditions may differ.

Method for CP: Each example group consisted of 10 ICR mice (5 weeks, male). […] Only the corn oil was dosed orally as a negative control. […] Mice were weighed 16 h after the injection, killed under ether anesthesia and blood and liver samples were collected. The kidney and spleen were separated and weighed, respectively.
After that, powdered liver tissues were homogenized using TRIzol™ reagent (Life technologies, Austria). The homogenized samples were incubated for 5 min at room temperature to permit the complete dissociation of nucleoprotein complexes. After the addition of 0.2 volume of chloroform, samples were shaken vigorously for 15 seconds, incubated for 2-3 min, and centrifuged at 12000×g for 15 min at 4° C. Total RNA in the upper aqueous phase was precipitated by mixing with an equal volume of isopropanol. The mixtures were incubated for 10 min at 4° C. and centrifuged at 12000×g for 10 min at 4° C. […] The concentration and purity of total RNA and DNase-I-treated total RNA were calculated with absorbance at 260 and 280 nm. […]
Semiquantitative RT-PCR was performed to confirm the results from DDRT-PCR. To set the most suitable PCR amplification conditions, primers for interesting gene were determined by an on-line primer design program (Rozen and Skaletsky, 2000). […]
Method for Kin: After that, powdered liver tissues were homogenized using TRIzol™ reagent (Life technologies, Austria). The homogenized samples were incubated for 5 min at room temperature to permit the complete dissociation of nucleoprotein complexes. After the addition of 0.2 volume of chloroform, samples were shaken vigorously for 15 seconds, incubated for 2-3 min, and centrifuged at 12000×g for 15 min at 4° C. Total RNA in the upper aqueous phase was precipitated by mixing with an equal volume of isopropanol. The mixtures were incubated for 10 min at 4° C. and centrifuged at 12000×g for 10 min at 4° C. Total RNA pellet was washed with 75% ethanol, dried, and dissolved in RNase free water. To prevent the contamination with chromosomal DNA, total RNA samples were incubated with 10 units of DNase I (GenHunter Corp., Nashville, USA) at 37° C. for 30 min, and then DNA-free RNA was isolated using TRIzol reagent. The concentration and purity of total RNA and DNase-I-treated total RNA were calculated with absorbance at 260 and 280 nm.
DDRT-PCR (differential display reverse transciption-polymerase chain reaction) was performed using the RNAimage kit (GenHunter Corp., Nashville, USA). […]

With `COc1cc(/C=C/C(=O)CC(=O)/C=C/c2ccc(O)c(OC)c2)ccc1O` [Curcumin, curcumin, reference compound], in the data set on ICR mice [1] (setting [3]), the “BUN (blood urea nitrogen)” value was determined as 138.6 ± 46.2 mg/dL, the Creatinine is listed as 2.2 ± 1.4 mg/dL, the GOT came to 381.6 ± 144.7 U/liter and the GPT was determined as 158.4 ± 84.3 U/liter. The “CP mRNA expression level changed by cisplatin” value in the data set on CP (liver, pretreatment before cisplatin) is “did not show that effect”. In addition, the “cisplatin-induced COX-2 mRNA expression” value in the data set on COX-2 is “returned the cisplatin-induced COX-2 mRNA expression to initial level”. The “binding activity of NF-κB induced by cisplatin” value in the data set with NF-κB is “suppressed”. The “suppressed binding activity of AP-1 (by cisplatin)” value in the data set with AP-1 (setting [4]) was “did not change”. Also, in the data set on ICR mice [2] (setting [3]), the “K.W/B.W * 1000% (kidney weight/body weight)” value was 17.2 ± 1.7 and the “S.W/B.W * 1000% (spleen weight/body weight)” value stood at 2.0 ± 0.1. Further, the “specific gravity of kidney” value in the data set with ICR mice [2] is reported as “decreased specific gravity of kidney at the level similar to that of the control group”. Besides, the “induction of iNOS mRNA expression by cisplatin” value in the data set with iNOS is recorded as “not suppressed”.
On to `N.N.[Cl][Pt][Cl]` [Cisplatin, cis-diamminedichloroplatinum [II], reference compound], for which, in the data set with ICR mice [1] (setting [5]), the “BUN (blood urea nitrogen)” value was 144.4 ± 20.6 mg/dL, the Creatinine is 2.8 ± 0.7 mg/dL, the GOT is reported as 517.1 ± 99.1 U/liter and the GPT is on record as 185.8 ± 86.3 U/liter. For the same compound, the “CP mRNA expression” value with CP (mouse, in vivo) is given as “downregulated”. In addition, the “Kin mRNA expression” value in the data set on Kin was “upregulated”. Besides, the “COX-2 mRNA expression” value with COX-2 (setting [6]) was “highly induced”. Besides, the “S100A9 mRNA expression” value in the data set on S100A9 (cisplatin alone) was “upregulated”. Further, the “DNA-binding activity of NF-κB” value with NF-κB (mouse, in vivo) is “increased”. Besides, the “DNA-binding activity of AP-1” value in the data set on AP-1 (mouse, in vivo) is reported as “decreased”. The “ClpX mRNA expression” value in the data set with ClpX (cisplatin alone) was “downregulated”. For the same compound, in the data set with ICR mice [2] (setting [7]), the “K.W/B.W * 1000% (kidney weight/body weight)” value is on record as 19.2 ± 1.6 and the “S.W/B.W * 1000% (spleen weight/body weight)” value is reported as 2.1 ± 0.4. The “iNOS mRNA expression” value with iNOS (setting [6]) was “highly induced”.
Regarding `CC(C)=CCC[C@@H](C)c1ccc(C)c(O)c1` [Xanthorrhizol, xanthorrhizol], in the data set on ICR mice [1] (setting [8]), the “BUN (blood urea nitrogen)” value is 145.2 ± 23.5 mg/dL, the Creatinine was found to be 2.0 ± 1.1 mg/dL, the GOT was 296.5 ± 74.5 U/liter and the GPT was determined as 134.2 ± 58.5 U/liter. In the data set with ICR mice [1] (setting [3]), the “BUN (blood urea nitrogen)” value is recorded as 50.9 ± 16.7 mg/dL, the Creatinine is given as 0.8 ± 0.5 mg/dL, the GOT came out at 201.4 ± 50.3 U/liter and the GPT came to 106.0 ± 28.3 U/liter. In the data set on ICR mice [1] (setting [9]), the “BUN (blood urea nitrogen)” value was “significantly decreased”, the Creatinine result is “significantly decreased” and the GPT entry was “significantly reduced”. Besides, the “antibacterial effect against oral bacteria such as Streptococcus mutans” value with Streptococcus mutans is recorded as “antibacterial effect”. Also, in the data set with rat uterine, the “tonic contraction of rat uterine” value is on record as “dose-dependently limits tonic contraction”. The “cisplatin-induced COX-2 mRNA expression” value in the data set on COX-2 is given as “returned the cisplatin-induced COX-2 mRNA expression to initial level”. Besides, in the data set with S100A9 (pretreatment before cisplatin), the “S100A9 mRNA expression level changed by cisplatin” value is given as “reversed”. Also, the “binding activity of NF-κB induced by cisplatin” value with NF-κB is given as “suppressed”. Besides, the “recovery of the binding activity of AP-1 suppressed by cisplatin” value in the data set with AP-1 (setting [4]) is “about 50%”. Moreover, the “ClpX mRNA expression level changed by cisplatin” value in the data set on ClpX (pretreatment before cisplatin) was “maintained the ClpX mRNA expression in the same level as without administrating with cisplatin; also recorded: reversed”. Moreover, in the data set with ICR mice [2] (setting [8]), the “K.W/B.W * 1000% (kidney weight/body weight)” value is reported as 17.5 ± 2.9 and the “S.W/B.W * 1000% (spleen weight/body weight)” value is listed as 2.1 ± 0.4. For the same compound, in the data set on ICR mice [2] (setting [3]), the “K.W/B.W * 1000% (kidney weight/body weight)” value is listed as 14.6 ± 0.9 and the “S.W/B.W * 1000% (spleen weight/body weight)” value was determined as 2.0 ± 0.3. In addition, the “specific gravity of kidney” value in the data set on ICR mice [2] is “decreased specific gravity of kidney at the level similar to that of the control group”. Also, in the data set with iNOS, the “induction of iNOS mRNA expression by cisplatin” value was “strongly suppressed”.
